Reference: ChEMBL document CHEMBL4219271, “Synthesis and anti-proliferative activity of allogibberic acid derivatives containing 1,2,3-triazole pharmacophore” (Bioorg Med Chem Lett, 2018)

Tests used:
Assay type in all cases: functional, cell-based
HL-60 = experiment: Cytotoxicity against human HL60 cells assessed as decrease in cell viability after 4 days by MTT assay; details: HL-60, 96 h
SW480 = experiment: Cytotoxicity against human SW480 cells assessed as decrease in cell viability after 4 days by MTT assay; details: SW480, 96 h
A549 = experiment: Cytotoxicity against human A549 cells assessed as decrease in cell viability after 4 days by MTT assay; details: A549, 96 h
MCF7 = experiment: Cytotoxicity against human MCF7 cells assessed as decrease in cell viability after 4 days by MTT assay; details: MCF7, 96 h
SMMC-7721 = experiment: Cytotoxicity against human SMMC7721 cells assessed as decrease in cell viability after 4 days by MTT assay; details: SMMC-7721, 96 h

Row | SMILES | IC50 (HL-60) [µM] | IC50 (SW480) [µM] | IC50 (A549) [µM] | IC50 (MCF7) [µM] | IC50 (SMMC-7721) [µM]
1 | C=C1C[C@]23C[C@@]1(O)CC[C@@H]2c1cccc(C)c1[C@@H]3Cn1cc(-c2ccc(Br)cc2)nn1 | > 20 | > 20 | > 20 | > 20 | > 20
2 | C=C1C[C@]23C[C@@]1(O)CC[C@@H]2c1cccc(C)c1[C@@H]3Cn1cc(-c2ccc(F)cc2)nn1 | > 20 | > 20 | > 20 | > 20 | > 20
3 | C=C1C[C@]23C[C@@]1(O)CC[C@H]2c1cc(Br)c(O)c(C)c1[C@@H]3Cn1cc(-c2ccc(C(F)(F)F)cc2)nn1 | 7.38 | 15.2 | 9.28 | 8.1 | 12.8
4 | C=C1C[C@]23C[C@@]1(O)CC[C@H]2c1ccc(O)c(C)c1[C@@H]3Cn1cc(-c2ccccc2)nn1 | > 20 | > 20 | > 20 | > 20 | > 20
5 | C=C1C[C@]23C[C@@]1(O)CC[C@H]2c1cc(Br)c(O)c(C)c1[C@@H]3Cn1cc(-c2ccc(Cl)cc2)nn1 | 5.59 | 18 | 10.5 | 10.2 | 19.1
6 | C=C1C[C@]23C[C@@]1(O)CC[C@H]2c1ccc(O)c(C)c1[C@@H]3Cn1cc(-c2ccc(F)cc2)nn1 | > 20 | > 20 | > 20 | > 20 | > 20
7 | C=C1C[C@]23C[C@@]1(O)CC[C@@H]2c1cccc(C)c1[C@@H]3Cn1cc(-c2ccccn2)nn1 | > 20 | > 20 | > 20 | > 20 | > 20
8 | C=C1C[C@]23C[C@@]1(O)CC[C@H]2c1cc(Br)c(O)c(C)c1[C@@H]3Cn1cc(-c2ccccn2)nn1 | > 20 | > 20 | > 20 | > 20 | > 20
9 | COc1ccc(-c2cn(C[C@H]3c4c(ccc(OS(=O)(=O)c5ccc(C)cc5)c4C)[C@@H]4CC[C@@]5(C)C[C@]43CC5=O)nn2)cc1 | > 20 | > 20 | > 20 | > 20 | > 20
10 | C=C1C[C@]23C[C@@]1(O)CC[C@@H]2c1cccc(C)c1[C@@H]3Cn1cc(-c2ccc(Cl)cc2)nn1 | > 20 | > 20 | > 20 | > 20 | > 20
11 | C=C1C[C@]23C[C@@]1(O)CC[C@H]2c1ccc(O)c(C)c1[C@@H]3Cn1cc(-c2ccc(Cl)cc2)nn1 | > 20 | > 20 | > 20 | > 20 | > 20
12 | C=C1C[C@]23C[C@@]1(O)CC[C@H]2c1cc(Br)c(O)c(C)c1[C@@H]3Cn1cc(-c2ccc(OC)cc2)nn1 | > 20 | > 20 | > 20 | > 20 | > 20
13 | Cc1ccc(-c2cn(C[C@H]3c4c(ccc(O)c4C)[C@@H]4CC[C@@]5(C)C[C@]43CC5=O)nn2)cc1 | > 20 | > 20 | > 20 | > 20 | > 20
14 | C=C1C[C@]23C[C@@]1(O)CC[C@H]2c1ccc(O)c(C)c1[C@@H]3Cn1cc(-c2ccccn2)nn1 | > 20 | > 20 | > 20 | > 20 | > 20
15 | C=C1C[C@]23C[C@@]1(O)CC[C@@H]2c1cccc(C)c1[C@@H]3Cn1cc(-c2ccc(C(F)(F)F)cc2)nn1 | > 20 | > 20 | > 20 | > 20 | > 20
16 | C=C1C[C@]23C[C@@]1(O)CC[C@H]2c1ccc(O)c(C)c1[C@@H]3Cn1cc(-c2ccc(Br)cc2)nn1 | > 20 | > 20 | > 20 | > 20 | > 20
17 | C=C1C[C@]23C[C@@]1(O)CC[C@@H]2c1cccc(C)c1[C@@H]3Cn1cc(-c2ccccc2)nn1 | > 20 | > 20 | > 20 | > 20 | > 20
18 | Cc1ccc(S(=O)(=O)Oc2ccc3c(c2C)[C@H](Cn2cc(-c4ccc(F)cc4)nn2)[C@@]24CC(=O)[C@@](C)(CC[C@@H]32)C4)cc1 | > 20 | > 20 | > 20 | > 20 | > 20
19 | C=C1C[C@]23C[C@@]1(O)CC[C@H]2c1ccc(OS(=O)(=O)c2ccc(C)cc2)c(C)c1[C@@H]3Cn1cc(-c2ccc(C(F)(F)F)cc2)nn1 | > 20 | > 20 | > 20 | > 20 | > 20
20 | C=C1C[C@]23C[C@@]1(O)CC[C@H]2c1cc(Br)c(O)c(C)c1[C@@H]3Cn1cc(-c2ccc(C)cc2)nn1 | > 20 | > 20 | > 20 | > 20 | > 20

Row | SMILES | IC50 (HL-60) [µM] | IC50 (SW480) [µM] | IC50 (A549) [µM] | IC50 (MCF7) [µM] | IC50 (SMMC-7721) [µM]
21 | Cc1ccc(-c2cn(C[C@H]3c4c(ccc(OS(=O)(=O)c5ccc(C)cc5)c4C)[C@@H]4CC[C@@]5(C)C[C@]43CC5=O)nn2)cc1 | > 20 | > 20 | > 20 | > 20 | > 20
22 | C=C1C[C@]23C[C@@]1(O)CC[C@H]2c1ccc(OS(=O)(=O)c2ccc(C)cc2)c(C)c1[C@@H]3Cn1cc(-c2ccccc2)nn1 | > 20 | > 20 | > 20 | > 20 | > 20
23 | Cc1c(O)ccc2c1[C@H](Cn1cc(-c3ccc(Cl)cc3)nn1)[C@@]13CC(=O)[C@@](C)(CC[C@@H]21)C3 | > 20 | > 20 | > 20 | > 20 | > 20
24 | CC(=O)O[C@H]1C(=O)[C@@]2(C)[C@H]([C@H](OC(=O)c3ccccc3)[C@]3(O)C[C@H](OC(=O)[C@H](O)[C@@H](NC(=O)c4ccccc4)c4ccccc4)C(C)=C1C3(C)C)[C@]1(OC(C)=O)CO[C@@H]1C[C@@H]2O [PACLITAXEL] | < 0.008 | < 0.008 | < 0.008 | < 0.008 | < 0.008
25 | C=C1C[C@]23C[C@@]1(O)CC[C@H]2c1ccc(O)c(C)c1[C@@H]3Cn1cc(-c2ccc(C(F)(F)F)cc2)nn1 | 8.95 | > 20 | 10.4 | 12.4 | > 20
26 | Cc1ccc(S(=O)(=O)Oc2ccc3c(c2C)[C@H](Cn2cc(-c4ccc(Cl)cc4)nn2)[C@@]24CC(=O)[C@@](C)(CC[C@@H]32)C4)cc1 | > 20 | > 20 | > 20 | > 20 | > 20
27 | C=C1C[C@]23C[C@@]1(O)CC[C@@H]2c1cccc(C)c1[C@@H]3Cn1cc(-c2ccc(OC)cc2)nn1 | > 20 | > 20 | > 20 | > 20 | > 20
28 | C=C1C[C@]23C[C@@]1(O)CC[C@H]2c1cc(Br)c(O)c(C)c1[C@@H]3Cn1cc(-c2ccccc2)nn1 | > 20 | > 20 | > 20 | > 20 | > 20
29 | C=C1C[C@]23C[C@@]1(O)CC[C@H]2c1ccc(OS(=O)(=O)c2ccc(C)cc2)c(C)c1[C@@H]3Cn1cc(-c2ccc(Cl)cc2)nn1 | > 20 | > 20 | > 20 | > 20 | > 20
30 | Cc1ccc(S(=O)(=O)Oc2ccc3c(c2C)[C@H](Cn2cc(-c4ccc(Br)cc4)nn2)[C@@]24CC(=O)[C@@](C)(CC[C@@H]32)C4)cc1 | > 20 | > 20 | > 20 | > 20 | > 20
31 | Cc1ccc(S(=O)(=O)Oc2ccc3c(c2C)[C@H](Cn2cc(-c4ccccn4)nn2)[C@@]24CC(=O)[C@@](C)(CC[C@@H]32)C4)cc1 | > 20 | > 20 | > 20 | > 20 | > 20
32 | C=C1C[C@]23C[C@@]1(O)CC[C@H]2c1ccc(OS(=O)(=O)c2ccc(C)cc2)c(C)c1[C@@H]3Cn1cc(-c2ccc(F)cc2)nn1 | > 20 | > 20 | > 20 | > 20 | > 20
33 | C=C1C[C@]23C[C@@]1(O)CC[C@@H]2c1cccc(C)c1[C@@H]3Cn1cc(-c2ccc(C)cc2)nn1 | > 20 | > 20 | > 20 | > 20 | > 20
34 | C=C1C[C@]23C[C@@]1(O)CC[C@H]2c1ccc(OS(=O)(=O)c2ccc(C)cc2)c(C)c1[C@@H]3Cn1cc(-c2ccccn2)nn1 | > 20 | > 20 | > 20 | > 20 | > 20
35 | Cc1c(O)ccc2c1[C@H](Cn1cc(-c3ccc(F)cc3)nn1)[C@@]13CC(=O)[C@@](C)(CC[C@@H]21)C3 | > 20 | > 20 | > 20 | > 20 | > 20
36 | C=C1C[C@]23C[C@@]1(O)CC[C@H]2c1ccc(OS(=O)(=O)c2ccc(C)cc2)c(C)c1[C@@H]3Cn1cc(-c2ccc(OC)cc2)nn1 | > 20 | > 20 | > 20 | > 20 | > 20
37 | Cc1ccc(S(=O)(=O)Oc2ccc3c(c2C)[C@H](Cn2cc(-c4ccc(C(F)(F)F)cc4)nn2)[C@@]24CC(=O)[C@@](C)(CC[C@@H]32)C4)cc1 | > 20 | > 20 | > 20 | > 20 | > 20
38 | C=C1C[C@]23C[C@@]1(O)CC[C@H]2c1ccc(OS(=O)(=O)c2ccc(C)cc2)c(C)c1[C@@H]3Cn1cc(-c2ccc(C)cc2)nn1 | > 20 | > 20 | > 20 | > 20 | > 20
39 | C=C1C[C@]23C[C@@]1(O)CC[C@H]2c1cc(Br)c(O)c(C)c1[C@@H]3Cn1cc(-c2ccc(F)cc2)nn1 | 6.6 | > 20 | 17.9 | 19.2 | > 20
